Data set [1] relates to adult SHR. As to conditions: tail cuff method, ref Kirimura et al. (2005); cited from earlier work. The source says: [Kirimura et al. (2005)], studied NK3201, another chymase inhibitor. […] However, the study by [Kirimura et al. (2005)], in addition to the obvious difference in the protocol (single oral dose vs. our chronic intravenous infusion) has another limitation: the tail cuff method was used to measure blood pressure.

The target of data set [2] is T1, Human chymase (Homo sapiens, UniProt P23946).
T1 sequence (P23946 22-247): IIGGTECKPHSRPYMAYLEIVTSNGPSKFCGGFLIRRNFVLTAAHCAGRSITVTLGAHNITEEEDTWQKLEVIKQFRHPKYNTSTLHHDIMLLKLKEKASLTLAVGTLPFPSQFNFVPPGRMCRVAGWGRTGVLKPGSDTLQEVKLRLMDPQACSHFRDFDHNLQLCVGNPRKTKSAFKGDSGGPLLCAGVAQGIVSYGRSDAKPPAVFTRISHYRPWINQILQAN
The conditions noted are these: pH 7.8.
Method: Chymase digestion of ANG I in the presence of synthetized peptides was performed in vitro. The concentration of remaining ANG I was calculated in order to assess the ability of peptides to inhibit chymase.
Human chymase (72 units/mg protein; 259 µg protein/ml, vial volume 187 μl, Sigma) stock solution was prepared by diluting the initial sample of enzyme with Tris*HCl buffer (0.27 mM Tris*HCl, pH 7.8 and 150 mM NaCl) to obtain the final chymase concentration of 1.379 μg/ml.
Reactions (during which ANG I was converted to ANG II through removal of two C-terminal residues) were stopped at the desired times (0, 10, 20, 30, 40, 60, 80 min) by addition of 10 μl of 98% FA. […] Positive electrospray (ES+) was used as the ionization method for mass spectrometry.
The inhibitory effect of each peptide on chymase activity was expressed as remaining amount of substrate vs. time of digestion and presented as percentage ratio and calculated by the following formula [ANG It=X min/ANG It=0 min]x100% where ANG It=X min is the peak area of angiotensin I at desired time of digestion, ANG It=0 min is the peak area of angiotensin I at 0 min of digestion.

In data set [3] the test system is spontaneously hypertensive rats (SHR). The data set is described as follows: Plasma and urine parameters during chronic treatment. The class given is in vivo, rat. The conditions noted are these: mean ± SEM. The procedure:
(§1) Systolic and diastolic blood pressure (SBP and DBP, respectively) and heart rate (HR) were measured in conscious unrestrained rats by telemetry technique, once a week for 24 h. 24 hour observations in metabolic cages (Tecniplast S. p.A. Buguggiate, Italy) were performed weekly. The diuresis, weight of feces, food and water intake were measured; urine and blood samples were collected on day 0, 7th and 14th, and were centrifuged at 1200 g (blood for 15 min and urine for 5 min), then the samples were stored at –80°C until analysis.
(§2) On day 0 all animals received saline (0.9% NaCl) and then, for 14 consecutive days, the substance tested. Chymostatin (CH, 2 mg/kg/day) was dissolved in DMSO and then diluted with PBS (final concentration of DMSO was 0.15%). Peptides RIY (7.5 mg/kg/day) and VWIS (12.5 mg/kg/day) were dissolved in saline (0.9% NaCl, S). The substances were administered through the femoral vein during 10 min in the volume of 0.5 ml to young SHR (infusion rate: 3 ml/h) and 1 ml to adult rats (infusion rate: 6 ml/h). Control rats received solvents (either DMSO or saline) in the same volume.
(§3) Urine volume was determined by gravimetric method. Sodium and potassium concentration in urine and plasma were measured by flame photometry (PFP7/C, Jenway Ltd, Stone, United Kingdom). Urine and plasma osmolality were measured by freezing point depression (Osmomat® 030 M, Gonotec, Berlin, Germany). These parameters were used to determine the excretion rates of total solutes (UosmV), sodium (UNaV) and potassium (UKV). Commercially available ELISA kits were used to measure nitric oxide metabolites (NOx, SunRed, Shanghai) and albumin (Albumin, ICL, Portland) concentration in urine. Excretion rate of NOx (UNOxV) and albumin (UAE) were calculated.

Data set [4] shares this test system. Put plainly: Metabolic parameters in metabolic cages during chronic treatment. In kind it is in vivo, rat. As to conditions: mean ± SEM. The procedure:
as §1, §2, §3

Data set [5] deals with ACE. The conditions noted are these: ref Marczak et al. (2003); cited from earlier work.
Where [6] appears, read: adult SHR (SHR-16), day 0 (baseline).
The mark [7] stands for this setting: adult SHR (SHR-16), day 7 of daily iv CH 2, RIY 7.5, VWIS 12.5 mg/kg/day.
The mark [8] stands for this setting: adult SHR (SHR-16), day 7 of daily iv treatment.
Where [9] appears, read: adult SHR (SHR-16), day 14 of daily iv CH 2, RIY 7.5, VWIS 12.5 mg/kg/day.
The mark [10] stands for this setting: adult SHR (SHR-16), day 14 of daily iv treatment.
Setting [11] is: young SHR (SHR-6), day 0 (baseline), CH n=8-10, RIY n=5, VWIS n=5-6.
[12] abbreviates: young SHR (SHR-6), day 0 (baseline).
Setting [13] is: young SHR (SHR-6), day 7 of daily iv CH 2, RIY 7.5, VWIS 12.5 mg/kg/day.
Where [14] appears, read: young SHR (SHR-6), day 7 of daily iv treatment.
The mark [15] stands for this setting: young SHR (SHR-6), day 14 of daily iv CH 2, RIY 7.5, VWIS 12.5 mg/kg/day.
Setting [16] is: young SHR (SHR-6), day 14 of daily iv treatment.

Where a SMILES comes first, the peptide text is derived from it. Where no end group is shown, it is not given here.

With `O=CNc1cnc(-c2ccccc2)n(CC(=O)NC(Cc2ccccc2)C(=O)C(=O)CCCOc2ccccn2)c1=O` (stereo not drawn) [NK3201], the “blood pressure after a single oral dose” value in data set [1] is recorded as “did not lower blood pressure”.
Turning to DRVYIHPFHL [ANG I, angiotensin I], in data set [2], the “half-life time of ANG I (T1/2) in human chymase solution in absence of inhibitory peptides” value was 16 min.
`CC[C@H](C)[C@H](NC(=O)[C@H](Cc1c[nH]c2ccccc12)NC(=O)[C@@H](N)C(C)C)C(=O)N[C@@H](CO)C(=O)O` [VWIS, Valine-Tryptophan-Isoleucine-Serine] (H-VWIS-OH): the Plasma osmolality in data set [3] (adult SHR (SHR-16), day 0 (baseline), CH n=5-8, RIY n=5-6, VWIS n=5-6) is 313±1 mOsm/l; in data set [3] (setting [7]), 308±1 mOsm/l; in data set [3] (setting [9]) it was 302±2 mOsm/l; in data set [3] (setting [11]) it was 295±2 mOsm/l; in data set [3] (setting [13]) it was 297±1 mOsm/l; in data set [3] (setting [15]), 293±3 mOsm/l. Also, the “Plasma K+ concentration” value came to 4.20 ± 0.18 mmol/L in data set [3] (setting [6]); 3.78 ± 0.31 mmol/L in data set [3] (setting [8]); 3.96 ± 0.06 mmol/L in data set [3] (setting [10]); 4.42 ± 0.20 mmol/L in data set [3] (setting [12]); 4.45 ± 0.16 mmol/L in data set [3] (setting [14]); 4.33 ± 0.14 mmol/L in data set [3] (setting [16]). Further, the “Plasma Na+ concentration” value was 133.0 ± 0.8 mmol/L in data set [3] (setting [6]); 130.2 ± 4.5 mmol/L in data set [3] (setting [8]); 135.8 ± 4.7 mmol/L in data set [3] (setting [10]); 131.8 ± 3.0 mmol/L in data set [3] (setting [12]); 133.40 ± 5.6 mmol/L in data set [3] (setting [14]); 131.4 ± 4.5 mmol/L in data set [3] (setting [16]). The Potassium excretion in data set [3] (setting [6]) amounted to 0.97 ± 0.21 µmol/min; in data set [3] (setting [8]), 1.26 ± 0.27 µmol/min; in data set [3] (setting [10]) it was 0.95 ± 0.21 µmol/min; in data set [3] (setting [12]), 0.73 ± 0.20 µmol/min; in data set [3] (setting [14]), 1.75 ± 0.15 µmol/min; in data set [3] (setting [16]), 0.72 ± 0.11 µmol/min. Besides, the Sodium excretion worked out at 0.90 ± 0.18 µmol/min in data set [3] (setting [6]); 1.02 ± 0.19 µmol/min in data set [3] (setting [8]); 0.81 ± 0.16 µmol/min in data set [3] (setting [10]); 0.69 ± 0.13 µmol/min in data set [3] (setting [12]); 0.84 ± 0.13 µmol/min in data set [3] (setting [14]); 0.63 ± 0.08 µmol/min in data set [3] (setting [16]). In addition, the Total solute excretion is on record as 7.52±1.54 µOsm/min in data set [3] (setting [6]); 9.90±2.21 µOsm/min in data set [3] (setting [8]); 10.42±2.06 µOsm/min in data set [3] (setting [10]); 5.48±1.40 µOsm/min in data set [3] (setting [12]); 7.11±0.95 µOsm/min in data set [3] (setting [14]); 7.16±0.75 µOsm/min in data set [3] (setting [16]). Besides, the Body weight in data set [4] (adult SHR (SHR-16), day 0 (baseline), CH n=8, RIY n=5-6, VWIS n=5-6) was 304 ± 8 g; in data set [4] (setting [7]), 312 ± 11 g; in data set [4] (setting [9]) it was 329 ± 11 g; in data set [4] (setting [11]), 110 ± 11 g; in data set [4] (setting [13]) it was 145 ± 13 g; in data set [4] (setting [15]) it was 174 ± 13 g. In addition, the Diuresis in data set [4] (setting [6]) is 7.1 ± 1.4 µL/min; in data set [4] (setting [8]) it was 7.0 ± 1.3 µL/min; in data set [4] (setting [10]), 8.0 ± 1.8 µL/min; in data set [4] (setting [12]) it was 6.3 ± 0.8 µL/min; in data set [4] (setting [14]), 7.2 ± 0.7 µL/min; in data set [4] (setting [16]), 8.5 ± 0.8 µL/min. Also, the Faeces was 11±1 g/24 h in data set [4] (setting [6]); 11±2 g/24 h in data set [4] (setting [8]); 11±1 g/24 h in data set [4] (setting [10]); 10±1 g/24 h in data set [4] (setting [12]); 13±1 g/24 h in data set [4] (setting [14]); 14±1 g/24 h in data set [4] (setting [16]). Further, the Food intake stood at 20±1 g/24 h in data set [4] (setting [6]); 22±1 g/24 h in data set [4] (setting [8]); 19±1 g/24 h in data set [4] (setting [10]); 16±1 g/24 h in data set [4] (setting [12]); 19±1 g/24 h in data set [4] (setting [14]); 20±1 g/24 h in data set [4] (setting [16]). For the same compound, the Water intake in data set [4] (setting [6]) was 30±1 g/24 h; in data set [4] (setting [8]), 34±1 g/24 h; in data set [4] (setting [10]), 32±2 g/24 h; in data set [4] (setting [12]), 22±2 g/24 h; in data set [4] (setting [14]), 32±7 g/24 h; in data set [4] (setting [16]) it was 30±2 g/24 h. Moreover, the “stability / conversion to dipeptide in the presence of ACE” value in data set [5] was “transformed rapidly to dipeptide VW”.

The values are drawn from paper PMC8165439, “Chymase Dependent Pathway of Angiotensin II Generation and Rapeseed Derived Peptides for Antihypertensive Treatment of Spontaneously Hypertensive Rats” (Frontiers in Pharmacology, 2021).
